Results taken from patent publication US10858342B2, “Bicyclic imidazole derivatives useful for the treatment of renal diseases, cardiovascular diseases and fibrotic diseases” (Boehringer Ingelheim International GmbH, priority 2016, dated 2020).
Read-outs that look alike come from different tables or passages of the source.

Assays:
Assay type in all cases: biochemical, cynomolgus monkey
[1] = target: aldosterone synthase (CYP11B2) (Macaca fascicularis, UniProt A0A2K5UPL9); assay: Inhibition of aldosterone synthase (cynomolgus adrenal mitochondria, aldosterone by mass spectrometry)
aldosterone synthase (CYP11B2) (Macaca fascicularis, UniProt A0A2K5UPL9), sequence (A0A2K5UPL9 1-503): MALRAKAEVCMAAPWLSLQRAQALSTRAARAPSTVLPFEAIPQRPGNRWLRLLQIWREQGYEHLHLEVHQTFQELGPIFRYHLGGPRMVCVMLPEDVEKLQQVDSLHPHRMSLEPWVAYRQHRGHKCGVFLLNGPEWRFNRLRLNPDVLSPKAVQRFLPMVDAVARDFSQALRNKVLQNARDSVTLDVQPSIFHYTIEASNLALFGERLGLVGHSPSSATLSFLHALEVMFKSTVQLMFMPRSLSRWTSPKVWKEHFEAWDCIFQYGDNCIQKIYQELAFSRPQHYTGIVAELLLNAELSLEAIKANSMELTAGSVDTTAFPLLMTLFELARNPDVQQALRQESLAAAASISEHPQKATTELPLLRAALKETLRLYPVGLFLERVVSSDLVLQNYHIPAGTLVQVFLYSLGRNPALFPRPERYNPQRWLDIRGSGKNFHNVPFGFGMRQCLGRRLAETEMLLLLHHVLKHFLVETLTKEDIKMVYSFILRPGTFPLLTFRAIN
Procedure: (§1) The aldosterone synthase and cortisol synthase inhibition assays employ cynomolgus adrenal gland mitochondria as the source of aldosterone synthase (CYP11B2) and cortisol synthase (CYP11B1). […] One unit of CYP11B2 and CYP11B1 activity in these preparations is defined as the amount of enzyme that generates 1 pmol of product in one hour under the conditions described.
(§2) The compounds of the invention may be evaluated for aldosterone synthase inhibition by the following assay:
(§3) Assays are performed in 96-well format in a final volume of 60 microL/well, containing 100 mM potassium phosphate, pH 7.4, 1% (v/v) DMSO, and additionally, 2 μM of corticosterone and 50 units of CYP11B2 activity. Reactions are started by the addition of NADPH to 1 mM and allowed to proceed for 90 minutes at 37° C. Reactions are terminated by the addition of 60 μL of MeCN containing an internal standard for mass spectrometry. One hundred microliters are then transferred to a glass filter plate and centrifuged at 570×g for 5 minutes and the filtrate is collected. Reaction product aldosterone is quantified by mass spectrometry. To determine the assay blank value (0% activity), NADPH is omitted from some reactions.
(§4) Dose dependent inhibition is quantified by the inclusion of compound at various concentrations. Maximum activity (100%) is defined by reactions containing NADPH, but without compound.

[2] = target: cortisol synthase (CYP11B1) (Macaca fascicularis, UniProt A0A2K5ULY1); assay: Inhibition of cortisol synthesis (cynomolgus adrenal mitochondria, cortisol by mass spectrometry)
Procedure: The aldosterone synthase and cortisol synthase inhibition assays employ cynomolgus adrenal gland mitochondria as the source of aldosterone synthase (CYP11B2) and cortisol synthase (CYP11B1). Mitochondria are prepared from frozen cynomolgus monkey adrenal glands according to Method A described in by J. D. McGarry et al. (Biochem. J., 1983, 214, 21-28), with a final resuspension in the AT buffer described in R. Yamaguchi et al. (Cell Death and Differentiation, 2007, 14, 616-624), frozen as aliquots in liquid nitrogen and stored at −80° C. until use. One unit of CYP11B2 and CYP11B1 activity in these preparations is defined as the amount of enzyme that generates 1 pmol of product in one hour under the conditions described.
as §3
Dose dependent inhibition is quantified by the inclusion of compound at various concentrations. Maximum activity (100%) is defined by reactions containing NADPH, but without compound. Activities at each concentration are expressed as a percentage of the maximum activity (y-axis) and plotted against concentration of compound (x-axis) and the concentration corresponding to 50% activity (IC50) determined using the XLFit curve-fitting program using a 4-parameter logistic model.
Assays are performed as for aldosterone synthase except for the use of 150 units of CYP11B1, 11-deoxycortisol as substrate and cortisol measured as product.

[3] = test system: aldosterone synthase (CYP11B2); assay: Inhibition of aldosterone synthase (cynomolgus adrenal mitochondria, aldosterone by mass spectrometry); conditions: selectivity for aldosterone synthase inhibition over cortisol synthase (CYP11B1) inhibition, fold
Procedure: as §1, §2, §3, §4

[4] = 2 μM corticosterone substrate, 50 units CYP11B2, 90 min, 37° C., read-out: Aldosterone Inhibition IC50
[5] = read-out: Cortisol Inhibition IC50; 11-deoxycortisol substrate, 150 units CYP11B1
[6] = 11-deoxycortisol substrate, 150 units CYP11B1; read-out: Cortisol Inhibition IC50

IC50 [2, 6] | IC50 [1] | SMILES | IC50 [1, 4] | IC50 [2, 5] | Selectivity [3]
– | – | CC1(C)CC(=O)c2c(ncn2C2CCCc3ccccc32)C1 (stereo not drawn) [C-ACS, 6,6-Dimethyl-3-(1,2,3,4-tetrahydronaphthalen-1-yl)-3,5,6,7-tetrahydro-benzoimidazol-4-one] | 0.093 µM | 26 µM | –
– | – | CNC(=O)[C@H]1CC(=O)c2c(ncn2-c2ccc(C#N)c(Cl)c2)C1 [C-AEH, (R)-1-(3-Chloro-4-cyano-phenyl)-7-oxo-4,5,6,7-tetrahydro-1H-benzoimidazole-5-carboxylic acid methylamide] | 0.057 µM | > 30 µM | 526
– | – | N#Cc1ccc(-n2cnc3c2C(=O)CCC3)cc1Cl [C-AEA, 2-Chloro-4-(7-oxo-4,5,6,7-tetrahydro-benzoimidazol-1-yl)-benzonitrile] | 0.0087 µM | 1.1 µM | 130
1 µM | – | O=C1CCCc2ncn(-c3ccc(Cl)c(Cl)c3)c21 [C-ACC, 3-(3,4-Dichloro-phenyl)-3,5,6,7-tetrahydro-benzoimidazol-4-one] | 0.0055 µM | – | –
– | – | N#Cc1ccc(-n2cnc3c2C(=O)CC2(CCOCC2)C3)cc1Cl [C-AAQ, 3-(3-Chloro-4-cyano-phenyl)-6,6-3-o-tetrahydropyran-3,5,6,7-tetrahydro-benzoimidazol-4-one] | 0.044 µM | 2.9 µM | –
1.9 µM | – | CC(=O)Nc1ccc(Cn2cnc3c2C(=O)CC(C)(C)C3)cc1 [C-ADE, N-[4-(5,5-Dimethyl-7-oxo-4,5,6,7-tetrahydro-benzoimidazol-1-ylmethyl)-phenyl]-acetamide] | 0.058 µM | – | –
6.1 µM | – | CC1(C)CC(=O)c2c(ncn2C2CCCCC2)C1 [C-ACK, 3-Cyclohexyl-6,6-dimethyl-3,5,6,7etrahydro-benzoimidazol-4-one] | 0.26 µM | – | –
13 µM | – | N#C[C@H]1CC[C@H](n2cnc3c2C(=O)CCC3)CC1 [C-ACJ, trans-4-(7-Oxo-5,6-dihydro-4H-benzimidazol-1-yl)cyclohexanecarbonitrile] | 0.03 µM | – | –
10 µM | – | CC1(C)CC(=O)c2c(ncn2-c2cccc(C#N)c2)C1 [C-ABS, 3-(5,5-Dimethyl-7-oxo-4,5,6,7-tetrahydro-benzoimidazol-1-yl)-benzonitrile] | 0.25 µM | – | –
– | – | N#Cc1ccc(-n2cnc3c2C(=O)CC(CO)C3)cc1Cl (stereo not drawn) [C-AED, 2-Chloro-4-(5-hydroxymethyl-7-oxo-4,5,6,7-tetrahydro-benzoimidazol-1-yl)-benzonitrile] | 0.018 µM | 8.6 µM | –
61 µM | – | CC1(C)CC(=O)c2c(ncn2C2Cc3ccccc3C2)C1 [C-ADG] | 0.047 µM | – | –
29 µM | – | CC1(C)CC(=O)c2c(ncn2Cc2ccc(C(=O)N3CC[C@@H](O)C3)cc2)C1 [C-ADT, 3-[4-((R)-3-Hydroxy-pyrrolidine-1-carbonyl)-benzyl]-6,6-dimethyl-3,5,6,7-tetrahydro-benzoimidazol-4-one] | 0.29 µM | – | –
– | – | CN(C)C(=O)[C@H]1CC(=O)c2c(ncn2-c2ccc(C#N)c(Cl)c2)C1 [C-AEE, (R)-1-(3-Chloro-4-cyano-phenyl)-7-oxo-4,5,6,7-tetrahydro-1H-benzoimidazole-5-carboxylic acid dimethylamide] | 0.19 µM | > 30 µM | –
7.3 µM | – | Cc1ccc(-n2cnc3c2C(=O)CC(C)(C)C3)cc1C#N [C-ABY, 5-(5,5-Dimethyl-7-oxo-4,5,6,7-tetrahydro-benzoimidazol-1-yl)-2-methyl-benzonitrile] | 0.13 µM | – | –
> 30 µM | – | CC1(C)CC(=O)c2c(ncn2C2CCc3cc(Br)ccc3C2)C1 (stereo not drawn) [C-ACM, 3-(6-Bromo-1,2,3,4-tetrahydro-naphthalen-2-yl)-6,6-dimethyl-3,5,6,7-tetrahydro-benzoimidazol-4-on] | 0.053 µM | – | –
14 µM | – | CC1(C)CC(=O)c2c(ncn2C2CCC3CCCCC3C2)C1 (stereo not drawn) [C-ACO, 3-(Decahydro-naphthalen-2-yl)-6,6-dimethyl-3,5,6,7-tetrahydro-benzoimdazol-4-one] | 0.42 µM | – | –
25 µM | 0.29 µM | N#Cc1ccc(-n2cnc3c2C(=O)CCC3)nc1 [C-ADW, 6-(7-Oxo-4,5,6,7-tetrahydro-benzoimidazol-1-yl)-nicotinonitrile] | – | – | –
– | – | CCOC(=O)C1CC(=O)c2c(ncn2-c2ccc(C#N)c(Cl)c2)C1 (stereo not drawn) [C-AAY, 1-(3-Chloro-4-cyano-phenyl)-7-oxo-4,5,6,7-tetrahydro-1H-benzoimidazole-5-carboxylic acid ethyl ester] | 0.0073 µM | 5.1 µM | –
> 100 µM | – | CC(C)Oc1ccc(-n2cnc3c2C(=O)CC(C)(C)C3)cc1 [C-ABQ, 3-(4-Isoporopoxy-phenyl)-6,6-dimethyl-3,5,6,7-tetrahydro-benzoimidazol-4-one] | 0.28 µM | – | –
7.9 µM | – | CC1(C)CC(=O)c2c(ncn2[C@H]2CC[C@@H](C#N)CC2)C1 [C-ADL, 4-(5,5-Dimethyl-7-oxo-4,5,6,7-tetrahydro-benzoimidazol-1-yl)-cyclohexanecarbonitrile] | 0.022 µM | – | –

SMILES | IC50 [2, 6] | IC50 [1] | IC50 [1, 4] | IC50 [2, 5] | Selectivity [3]
CC1(C)CC(=O)c2c(ncn2Cc2ccc(F)cc2)C1 [C-ADO, 3-(4-Fluoro-benzyl)-6,6-dimethyl-3,5,6,7-tetrahydro-benzoimidazol-4-one] | 5.4 µM | – | 0.056 µM | – | 96
O=C1CCCc2ncn(-c3ccc4c(c3)OCCCO4)c21 [C-AAJ, 3-(3,4-Dihydro-2H-benzo[b][1,4]dioxepin-7-yl)-3,5,6,7-tetrahydro-benzoimidazol-4-one] | > 30 µM | – | 0.44 µM | – | 67
Cn1ncc2cc(-n3cnc4c3C(=O)CCC4)ccc21 [C-AAG, 3-(1-Methyl-1H-indazol-5-yl)-3,5,67,-tetrahydro-benzoimidazol-4-one] | > 30 µM | – | 0.1 µM | – | 300
CC1(C)CC(=O)c2c(ncn2C2CCc3cc(C#N)ccc3C2)C1 (stereo not drawn) [C-ADN, 6-(5,5-Dimethyl-7-oxo-4,5,6,-tetrahydro-benzoimidazol-1-yl)-5,6,7,8-tetrahydro-naphthalene-2-carbonitrile] | > 30 µM | – | 0.19 µM | – | 160
C[C@H]1Cc2cc(-n3cnc4c3C(=O)CCC4)ccc2O1 (stereo in doubt) [C-AAZ-B, 3-(2-Methyl-2,3-dihydro-benzofuran-5-yl)-3,5,6,7-tetrahydro-benzoimidazol-4-one] | > 30 µM | – | 0.07 µM | – | 430
CC1(C)CC(=O)c2c(ncn2-c2ccc(Cl)cc2)C1 [C-ABN, 3-(4-Chloro-phenyl)-6,6-dimethyl-3,5,6,7-tetrahydro-benzoimidazol-4-one] | 1 µM | – | 0.015 µM | – | 67
CC1(C)CC(=O)c2c(ncn2CC2CCOCC2)C1 [C-ADI, 6,6-Dimethyl-3-(tetrahydro-pyran-4-ylmethyl)-3,5,6,7-tetrahydro-benzoimidazol-4-one] | 19 µM | – | 0.47 µM | – | 41
CC1(C)CC(=O)c2c(ncn2-c2ccc(Cl)c(F)c2)C1 [C-ABM, 3-(4-Chloro-3-fluoro-phenyl)-6,6-dimethyl-3,5,6,7-tetrahydro-benzoimidazol-4-one] | 0.77 µM | – | 0.0047 µM | – | 160
N#Cc1ccc(-n2cnc3c2C(=O)CCC3)c(C2CC2)c1 [C-AAK, 3-Cyclopropyl-4-(7-oxo-4,5,6,7-tetrahydro-benzoimidazol-1-yl)-benzonitrile] | 17 µM | – | 0.034 µM | – | 500
CC1(C)CC(=O)c2c(ncn2C2CCc3ncncc3C2)C1 (stereo not drawn) [C-ACV, 6,6-Dimethyl-3-(5,6,7,8-tetrahydro-quinazolin-6-yl)-3,5,6,7-tetrahydro-benzoimidazol-4-one] | > 30 µM | – | 0.86 µM | – | 35
N#Cc1ccc(-n2cnc3c2C(=O)CC2(CCOCC2)C3)cc1 [C-AAS, 4-(7-Oxospiro[4,6-dihydrobenzimidazole-5,4′-tetrahydropyran]-1-yl)benzonitrile] | 14 µM | – | 0.24 µM | – | 61
